We go through six molecules from PubChem BioAssay AID2055 (NMMLSC, 2009).

For this test, the target named is Ras-related C3 botulinum toxin substrate 1 (Homo sapiens) (UniProt P63000). Put plainly: Rac1 wildtype GTP binding inhibitors, SAR follow-up, biochemical, pyrazoline analogs, multiplex, flow cytometry, Ki (AID 2055). Conditions: Rac1-GST beads, Bodipy-FL-GTP binding, Ki calculated from EC50.
Turning to `Brc1ccc(N2N=C(c3ccccc3)CC2c2ccccc2)cc1` (stereo unspecified), the inhibition constant Ki is 0.89 µM. Consider `COc1ccc(C2CC(c3ccc(F)cc3)=NN2c2cc(Cl)ccc2Cl)cc1` (stereo unspecified), for which the Ki is 0.01 µM. Regarding `O=C(O)c1ccc(N2N=C(c3ccccc3)CC2c2ccccc2)cc1` (stereo unspecified), the Ki was 5.11 µM. For the molecule `CC(=O)Oc1ccc(C2=NN(c3ccccc3)C(c3ccccc3)C2)cc1` (stereo unspecified), the Ki is 0.53 µM. As to `CN(C)c1ccc(C2CC(c3ccccc3)=NN2c2ccc([N+](=O)[O-])cc2)cc1` (stereo unspecified), the Ki is 1.9 µM. For `COc1ccc(C2CC(c3ccccc3)=NN2c2ccc(S(N)(=O)=O)cc2)cc1OC` (stereo unspecified) the value was 1.24 µM.

The Ki is a measure of affinity in units of concentration, obtained from inhibition or displacement.
